# Experimental data as given in ChEMBL document CHEMBL3865781, “Recent advances in the discovery and development of antibacterial agents targeting the cell-division protein FtsZ” (Bioorg Med Chem, 2016).
# Target: not listed separately
# Experiment: Displacement of mant-GTP from Bacillus subtilis FtsZ by spectrofluorometric assay
# Settings: not given
row,Kd [µM],Structure (SMILES)
1,0.4 to 0.8,O=C(Oc1cc(OC(=O)c2cc(O)c(O)c(O)c2)c2ccccc2c1)c1cc(O)c(O)c(O)c1
2,0.4 to 0.8,O=C(Oc1cc(OC(=O)c2cc(O)cc(O)c2)c2ccccc2c1)c1cc(O)cc(O)c1
3,0.5,O=C(Oc1cc(OC(=O)c2cccc(O)c2)cc(-c2ccccc2)c1)c1cccc(O)c1

# Tested on: Escherichia coli
# Experiment: Antibacterial activity against Escherichia coli ATCC 25922 after 18 hrs by broth microdilution method
# Type: functional
# Settings: ATCC 25922, 18 h
row,Structure (SMILES),MIC [µg/mL]
1,COc1cc(C/C=C(/Cl)Cc2cc(O)cc(O)c2)c(OC)cc1Cl,32 to 128
2,Cc1nc2ccccc2n1C(=O)/C=C/c1ccc(F)cc1,32 to 128
3,O=C(/C=C/c1ccc(O)c(O)c1)O[C@@H]1C[C@](O)(C(=O)O)C[C@@H](O)[C@H]1O [CHLOROGENIC ACID],32 to 128
4,Oc1ccc(/C=C/c2cc(O)cc(O)c2)cc1 [RESVERATROL],32 to 128
5,Cc1nc2ccccc2n1C(=O)/C=C/c1ccc(Cl)cc1Cl,32 to 128

# Tested on: Staphylococcus aureus
# Experiment: Antibacterial activity against methicillin-resistant Staphylococcus aureus ATCC BAA-41 after 18 hrs by broth microdilution method
# Type: functional
# Settings: ATCC BAA-41, 18 h
row,Structure (SMILES),MIC [µg/mL]
1,COc1cc(C/C=C(/Cl)Cc2cc(O)cc(O)c2)c(OC)cc1Cl,2 to 8
2,Cc1nc2ccccc2n1C(=O)/C=C/c1ccc(F)cc1,2 to 8
3,O=C(/C=C/c1ccc(O)c(O)c1)O[C@@H]1C[C@](O)(C(=O)O)C[C@@H](O)[C@H]1O [CHLOROGENIC ACID],2 to 8
4,Oc1ccc(/C=C/c2cc(O)cc(O)c2)cc1 [RESVERATROL],2 to 8
5,Cc1nc2ccccc2n1C(=O)/C=C/c1ccc(Cl)cc1Cl,2 to 8

# Tested on: not listed separately
# Experiment: Inhibition of Escherichia coli FtsZ polymerization expressed in Escherichia coli BL21 assessed as reduction in light scattering intensity in presence of GTP by fluorescence spectrometric analysis
# Settings: not given
row,Structure (SMILES),IC50 [µM]
1,O=C(/C=C/c1ccc(O)c(O)c1)O[C@@H]1C[C@](O)(C(=O)O)C[C@@H](O)[C@H]1O [CHLOROGENIC ACID],69.5

# Tested on: Enterococcus faecalis
# Experiment: Antimicrobial activity against vancomycin-sensitive Enterococcus faecalis after 18 hrs by broth microdilution method
# Type: functional
# Settings: not given
row,Structure (SMILES),MIC [µg/mL]
1,COc1cc(C/C=C(/Cl)Cc2cc(O)cc(O)c2)c(OC)cc1Cl,4 to 16
2,Cc1nc2ccccc2n1C(=O)/C=C/c1ccc(F)cc1,4 to 16
3,O=C(/C=C/c1ccc(O)c(O)c1)O[C@@H]1C[C@](O)(C(=O)O)C[C@@H](O)[C@H]1O [CHLOROGENIC ACID],4 to 16
4,Oc1ccc(/C=C/c2cc(O)cc(O)c2)cc1 [RESVERATROL],4 to 16
5,Cc1nc2ccccc2n1C(=O)/C=C/c1ccc(Cl)cc1Cl,4 to 16

# Tested on: Klebsiella pneumoniae
# Experiment: Antibacterial activity against Klebsiella pneumoniae ATCC BAA-1144 after 18 hrs by broth microdilution method
# Type: functional
# Settings: ATCC BAA-1144, 18 h
row,Structure (SMILES),MIC [µg/mL]
1,COc1cc(C/C=C(/Cl)Cc2cc(O)cc(O)c2)c(OC)cc1Cl,32 to 128
2,Cc1nc2ccccc2n1C(=O)/C=C/c1ccc(F)cc1,32 to 128
3,O=C(/C=C/c1ccc(O)c(O)c1)O[C@@H]1C[C@](O)(C(=O)O)C[C@@H](O)[C@H]1O [CHLOROGENIC ACID],32 to 128
4,Oc1ccc(/C=C/c2cc(O)cc(O)c2)cc1 [RESVERATROL],32 to 128
5,Cc1nc2ccccc2n1C(=O)/C=C/c1ccc(Cl)cc1Cl,32 to 128

# Tested on: Staphylococcus aureus
# Experiment: Antibacterial activity against methicillin-sensitive Staphylococcus aureus after 18 hrs by broth microdilution method
# Type: functional
# Settings: not given
row,Structure (SMILES),MIC [µg/mL]
1,COc1cc(C/C=C(/Cl)Cc2cc(O)cc(O)c2)c(OC)cc1Cl,2 to 8
2,Cc1nc2ccccc2n1C(=O)/C=C/c1ccc(F)cc1,2 to 8
3,O=C(/C=C/c1ccc(O)c(O)c1)O[C@@H]1C[C@](O)(C(=O)O)C[C@@H](O)[C@H]1O [CHLOROGENIC ACID],2 to 8
4,Oc1ccc(/C=C/c2cc(O)cc(O)c2)cc1 [RESVERATROL],2 to 8
5,Cc1nc2ccccc2n1C(=O)/C=C/c1ccc(Cl)cc1Cl,2 to 8

# Tested on: Bacillus subtilis
# Experiment: Antibacterial activity against Bacillus subtilis
# Type: functional
# Settings: not given
row,MIC [µM],Structure (SMILES)
1,100,O=C(Oc1cc(OC(=O)c2cc(O)c(O)c(O)c2)c2ccccc2c1)c1cc(O)c(O)c(O)c1
2,25,O=C(Oc1cc(OC(=O)c2cc(O)cc(O)c2)c2ccccc2c1)c1cc(O)cc(O)c1
